This passage reports TGI results from PubChem BioAssay (NCI).

Structures are written as SMILES.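 Cells were grown in 96-well plates and exposed to each compound for 48 hours at five concentrations; endpoints were interpolated linearly between bracketing concentrations, or set to the highest concentration if not reached. TGI marks complete inhibition of growth.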

Among the test systems are HOP-62 NSCLC; HL-60(TB) leukemia; UACC-257 melanoma; MDA-MB-231 breast; MALME-3M melanoma; HT29 colon; RPMI-8226 leukemia; SF-539 CNS; 786-0 renal; U251 CNS; HCT-116 colon; A549 NSCLC; OVCAR-4 ovarian; SK-OV-3 ovarian; EKVX NSCLC; UO-31 renal; HCC-2998 colon; SNB-75 CNS; COLO 205 colon; DU-145 prostate.
What all share (assay): DTP human tumour cell line panel, 48 h

In general, TGI refers to the concentration at which net growth stops. A lower TGI goes with greater sensitivity of the cells.

Consider `O=c1ccn(CC2(CO)CCCC2)c(=O)[nH]1`, for which the total growth inhibition concentration (TGI) with HOP-62 NSCLC, with HL-60(TB) leukemia, with UACC-257 melanoma, in the assay with MDA-MB-231 breast, in the assay on MALME-3M melanoma and in the assay with HT29 colon was above 100 µM in each case. In addition, the TGI with RPMI-8226 leukemia, in the assay on SF-539 CNS, with 786-0 renal, with U251 CNS, in the assay on HCT-116 colon and in the assay with A549 NSCLC was above 100 µM each time. For the same molecule, the TGI in the assay on OVCAR-4 ovarian, with SK-OV-3 ovarian, in the assay on EKVX NSCLC, in the assay on UO-31 renal, in the assay on HCC-2998 colon and with SNB-75 CNS was above 100 µM throughout. For the same molecule, the TGI in the assay with COLO 205 colon and in the assay with DU-145 prostate was above 100 µM in each case.
Turning to `Cn1c2ccccc2n2c3ncccc3c(=NCCCC(=O)O)c(C#N)c12`, the TGI in the assay on HOP-62 NSCLC, in the assay with HL-60(TB) leukemia, in the assay with MDA-MB-231 breast, in the assay with MALME-3M melanoma, in the assay on HT29 colon and in the assay with RPMI-8226 leukemia was above 100 µM throughout. Moreover, the TGI with 786-0 renal, in the assay with U251 CNS, with HCT-116 colon, in the assay on A549 NSCLC, in the assay on OVCAR-4 ovarian and with SK-OV-3 ovarian was above 100 µM each time. The total growth inhibition concentration (TGI) in the assay on EKVX NSCLC, with UO-31 renal, with HCC-2998 colon, in the assay with SNB-75 CNS, with COLO 205 colon and in the assay on DU-145 prostate was above 100 µM each time.
With `NC(=O)C(=O)c1ncn(Cc2ccccc2)c1N`, the TGI in the assay with HOP-62 NSCLC, in the assay on HL-60(TB) leukemia, with UACC-257 melanoma, in the assay on MDA-MB-231 breast, in the assay on MALME-3M melanoma and in the assay with HT29 colon was above 100 µM throughout. For the same molecule, the TGI in the assay with RPMI-8226 leukemia, in the assay with SF-539 CNS, in the assay on 786-0 renal, in the assay on U251 CNS, in the assay with HCT-116 colon and in the assay on A549 NSCLC was above 100 µM each time. Further, the TGI in the assay with OVCAR-4 ovarian, with SK-OV-3 ovarian, with EKVX NSCLC, in the assay on HCC-2998 colon, in the assay with SNB-75 CNS and with COLO 205 colon was above 100 µM throughout. Moreover, the TGI in the assay on DU-145 prostate was above 100 µM.
For the molecule `COc1ccc(NC(=S)N/N=C\c2ccc(NC(C)=O)cc2)cc1`, the TGI with HOP-62 NSCLC, in the assay with HL-60(TB) leukemia, in the assay on UACC-257 melanoma, in the assay with MDA-MB-231 breast, in the assay with MALME-3M melanoma and in the assay with HT29 colon was above 100 µM each time. Besides, the concentration for total growth inhibition (TGI) in the assay on RPMI-8226 leukemia, in the assay on 786-0 renal, in the assay on U251 CNS, in the assay on HCT-116 colon, with A549 NSCLC and in the assay on OVCAR-4 ovarian was above 100 µM throughout. Further, the TGI with SK-OV-3 ovarian, in the assay with EKVX NSCLC, in the assay with UO-31 renal, in the assay with HCC-2998 colon, in the assay with SNB-75 CNS and with COLO 205 colon was above 100 µM throughout. The molecule also showed a total growth inhibition concentration (TGI) in the assay with DU-145 prostate above 100 µM.
Regarding `FC(F)(F)c1ccc(Cc2nc3cc4ccccc4cc3[nH]2)cc1`, the total growth inhibition concentration (TGI) in the assay on HOP-62 NSCLC, in the assay on HL-60(TB) leukemia, in the assay on UACC-257 melanoma, in the assay on MDA-MB-231 breast, in the assay with MALME-3M melanoma and with HT29 colon was above 100 µM each time. In addition, the TGI in the assay on RPMI-8226 leukemia, in the assay with SF-539 CNS, with 786-0 renal, in the assay with U251 CNS, in the assay on HCT-116 colon and in the assay on A549 NSCLC was above 100 µM in each case. The TGI in the assay on OVCAR-4 ovarian is above 100 µM; in the assay with EKVX NSCLC it was above 100 µM; in the assay on UO-31 renal, above 100 µM; in the assay with HCC-2998 colon, above 100 µM; in the assay with SNB-75 CNS, 36.1 µM; in the assay on COLO 205 colon it was above 100 µM. The same molecule returned a TGI in the assay on DU-145 prostate above 100 µM.
For `CC1=NN(C(=O)c2ccccc2O)C(=O)/C1=C/c1cccc(O)c1`, the TGI with HL-60(TB) leukemia, with UACC-257 melanoma, with MDA-MB-231 breast, in the assay with MALME-3M melanoma, in the assay with HT29 colon and with RPMI-8226 leukemia was above 100 µM in each case. The TGI in the assay with SF-539 CNS is 4.29 µM; in the assay on 786-0 renal, above 100 µM; in the assay with U251 CNS, above 100 µM; in the assay with HCT-116 colon, above 100 µM; in the assay on A549 NSCLC, above 100 µM; in the assay with OVCAR-4 ovarian, above 100 µM. Moreover, the TGI with SK-OV-3 ovarian is above 100 µM; in the assay with EKVX NSCLC, above 100 µM; with HCC-2998 colon, above 100 µM; in the assay on SNB-75 CNS it was above 100 µM; in the assay with COLO 205 colon it was above 86.9 µM; in the assay with DU-145 prostate it was above 100 µM.
Turning to `Cc1ccc(/C=N/n2c(Cc3ccccc3)n[nH]c2=O)cc1`, the TGI with HOP-62 NSCLC, with HL-60(TB) leukemia, with UACC-257 melanoma, with MDA-MB-231 breast, with MALME-3M melanoma and with HT29 colon was above 100 µM in each case. For the same molecule, the TGI in the assay on RPMI-8226 leukemia, in the assay on SF-539 CNS, in the assay with 786-0 renal, in the assay with HCT-116 colon, with A549 NSCLC and in the assay on OVCAR-4 ovarian was above 100 µM each time. Besides, the TGI with EKVX NSCLC, with UO-31 renal, with HCC-2998 colon, in the assay with SNB-75 CNS, with COLO 205 colon and in the assay with DU-145 prostate was above 100 µM each time.
